From PMC6117091, “The C. difficile clnRAB operon initiates adaptations to the host environment in response to LL-37” (PLoS Pathogens, 2018)
Converted amounts (≈) assume the structure as drawn.

Key:
[1] = tested on: C. difficile 630Δerm; test: Minimum inhibitory concentration (MIC); assay type: cell-based, Clostridioides difficile; details: Mueller-Hinton Broth, 24 h, 37°C, anaerobic, ~5 x 10^5 CFU/ml
Description: (§1) Minimum inhibitory concentrations (MIC) were determined as previously described. […] Briefly, overnight cultures of C. difficile strains were diluted 1:50 in Mueller-Hinton Broth (Difco) and grown to OD600 of 0.45 (~5 x 10^7 CFU/ml). Cultures were then diluted 1:10 in MHB and seeded at a further 1:10 dilution in a round-bottom 96-well plate prepared with serial dilutions of antimicrobials for a starting concentration of ~5 x 10^5 CFU/ml. Plates were incubated for 24 h at 37°C in the anaerobic chamber.

[2] = tested on: C. difficile clnAB mutant (MC935); test: Minimum inhibitory concentration (MIC); assay type: cell-based, Clostridioides difficile; details: Mueller-Hinton Broth, 24 h, 37°C, anaerobic, ~5 x 10^5 CFU/ml
Description: as §1

[3] = tested on: C. difficile clnR mutant (MC885); test: Minimum inhibitory concentration (MIC); assay type: cell-based, Clostridioides difficile; details: Mueller-Hinton Broth, 24 h, 37°C, anaerobic, ~5 x 10^5 CFU/ml
Description: as §1

[4] = tested on: C. difficile 630Δerm; test: Minimum bactericidal concentration (MBC); assay type: cell-based, Clostridioides difficile; details: 1:10 dilution into BHIS, 24 h, 37°C, anaerobic
[5] = tested on: C. difficile clnR mutant; test: clnR and clnA expression by qRT-PCR in LL-37; assay type: cell-based, Clostridioides difficile; details: 2 µg/ml LL-37, BHIS
Description: Fig 4 ClnR acts as a conditional repressor and inducer of clnRAB expression. […] RNA samples were collected and processed for qRT-PCR analysis as described in Methods. Graphs show the mean mRNA expression levels of A) clnR and B) clnA relative to expression in strain 630Δerm in BHIS alone. […] Data were analyzed by two-way ANOVA and Tukey’s multiple comparisons test, with comparisons indicated by brackets. * indicates p < 0.05, ** indicates p ≤ 0.0001.

[6] = tested on: TcdA in C. difficile clnR and clnAB mutants; test: TcdA western blot; details: 2 μg/ml LL-37, TY medium, 24 h, 37°C
[7] = tested on: C. difficile clnR and clnA mutants; test: Growth in BHIS with LL-37; details: 2.5 μg/ml LL-37 in BHIS, versus parent strain
[8] = tested on: C. difficile 630Δerm; test: qRT-PCR of selected RNA-seq transcripts in LL-37; details: 2 µg/ml LL-37; normalized to 630∆erm in BHIS; mean ± SEM, n ≥ 3
[9] = tested on: C. difficile clnAB Tn::clnRAB; test: qRT-PCR of selected RNA-seq transcripts in LL-37; details: 2 µg/ml LL-37; normalized to 630∆erm in BHIS; mean ± SEM, n ≥ 3
[10] = tested on: tcdA, tcdB, sigD, tcdR, ilvC, CD0341 expression in C. difficile 630Δerm; test: Toxin and regulator gene expression by qRT-PCR in LL-37
[11] = tested on: C. difficile clnR mutant; test: Growth in minimal medium with LL-37, maximum doubling time; details: mean ± SD, n ≥ 3
[12] = tested on: C. difficile clnAB mutant; test: as above; details: mean ± SD, n ≥ 3
[13] = tested on: C. difficile clnAB Tn::clnRAB; test: as above; details: mean ± SD, n ≥ 3
[14] = 2 μg/ml LL-37, BHIS, log phase, wild-type cells, p < 0.05
[15] = 2 µg/ml LL-37, normalized to 630∆erm in BHIS, mean of three replicates ± SEM
[16] = 0.5 µg/ml LL-37, MM + 30 mM ethanolamine
[17] = 0.5 µg/ml LL-37, MM + 30 mM fructose
[18] = 0.5 µg/ml LL-37, MM + 30 mM glucose
[19] = 0.5 µg/ml LL-37, MM + 30 mM mannitol
[20] = 0.5 µg/ml LL-37, MM + 30 mM mannose
[21] = 0.5 µg/ml LL-37, MM + 30 mM NAG, § p < 0.05 vs no LL-37

CC[C@H](C)[C@H](NC(=O)[C@H](CCCCN)NC(=O)[C@H](CCC(=O)O)NC(=O)[C@H](CCCCN)NC(=O)[C@H](CO)NC(=O)[C@H](CCCCN)NC(=O)[C@H](CCCNC(=N)N)NC(=O)[C@H](Cc1ccccc1)NC(=O)[C@H](Cc1ccccc1)NC(=O)[C@H](CC(=O)O)NC(=O)CNC(=O)[C@H](CC(C)C)NC(=O)[C@@H](N)CC(C)C)C(=O)NCC(=O)N[C@@H](CCCCN)C(=O)N[C@@H](CCC(=O)O)C(=O)N[C@@H](Cc1ccccc1)C(=O)N[C@@H](CCCCN)C(=O)N[C@@H](CCCNC(=N)N)C(=O)N[C@H](C(=O)N[C@H](C(=O)N[C@@H](CCC(N)=O)C(=O)N[C@@H](CCCNC(=N)N)C(=O)N[C@H](C(=O)N[C@@H](CCCCN)C(=O)N[C@@H](CC(=O)O)C(=O)N[C@@H](Cc1ccccc1)C(=O)N[C@@H](CC(C)C)C(=O)N[C@@H](CCCNC(=N)N)C(=O)N[C@@H](CC(N)=O)C(=O)N[C@@H](CC(C)C)C(=O)N[C@H](C(=O)N1CCC[C@H]1C(=O)N[C@@H](CCCNC(=N)N)C(=O)N[C@H](C(=O)N[C@@H](CCC(=O)O)C(=O)N[C@@H](CO)C(=O)O)[C@@H](C)O)C(C)C)[C@@H](C)CC)C(C)C)[C@@H](C)CC [LL-37]
MIC [1]: 15 µg/mL (≈ 3.34 µM) | MIC [2]: 15 µg/mL (≈ 3.34 µM) | MIC [3]: 15 µg/mL (≈ 3.34 µM) | MBC [4]: 20 µg/mL (≈ 4.45 µM) | clnR and clnA expression (in words) [5]: no longer induced in the clnR mutant | TcdA levels (in words) [6]: TcdA levels did not change | growth (in words) [7]: grew slightly better than the parent strain | CD630_02840 relative expression [8]: 29.3 ± 18.8 | grdA (CD630_23520) relative expression [8]: 16.5 ± 10.5 | iorA (CD630_23810) relative expression [8]: 16.8 ± 8.4 | mtlA (CD630_23340) relative expression [8]: 1.0 ± 0.3 | sigU (csfU; CD630_18870) relative expression [8]: 10.5 ± 6.8 | cstA (CD630_26000) relative expression [9]: 1.3 ± 0.2 | grdA (CD630_23520) relative expression [9]: 1.6 ± 0.2 | mtlA (CD630_23340) relative expression [9]: 0.7 ± 0.4 | sigT (csfT; CD630_06770) relative expression [9]: 1.2 ± 0.2 | sigU (csfU; CD630_18870) relative expression [9]: 0.8 ± 0.1 | vanZ1 (CD630_12400) relative expression [9]: 0.6 ± 0.1 | tcdA expression, fold increase [10, 14]: 4.6 fold | tcdB expression, fold increase [10, 14]: 2.2 fold | sigD fold-change in expression in LL-37 [10, 15]: 0.95 ± 0.08 | tcdR fold-change in expression in LL-37 [10, 15]: 1.47 ± 0.44 | ilvC fold-change in expression in LL-37 ([10]; 2 µg/ml LL-37, normalized to 630∆erm in BHIS, mean of three replicates ± SEM, indicates CodY activity): 2.21 ± 0.20 | ilvC expression, fold increase ([10]; LL-37, p < 0.05): 2.2 fold | Doubling time ([11]; 0.5 µg/ml LL-37, MM + 30 mM NAG): 86.6 ± 2.5 min | Doubling time [11, 16]: 84.9 ± 4.6 min | Doubling time [11, 17]: 72.4 ± 0.9 min | Doubling time [11, 18]: 74.0 ± 1.7 min | Doubling time [11, 19]: 67.3 ± 1.5 min | Doubling time [11, 20]: 78.4 ± 4.9 min | Doubling time ([11]; 0.5 µg/ml LL-37, base MM): 74.1 ± 4.8 min | Doubling time [12, 21]: 80.3 ± 1.0 min | Doubling time [12, 16]: 79.6 ± 9.0 min | Doubling time [12, 17]: 65.1 ± 2.0 min | Doubling time [12, 18]: 62.1 ± 2.2 min | Doubling time [12, 19]: 58.3 ± 5.5 min | Doubling time [12, 20]: 66.8 ± 4.5 min | Doubling time ([12]; 0.5 µg/ml LL-37, base MM): 77.1 ± 5.3 min | Doubling time [13, 21]: 83.6 ± 1.7 min | Doubling time [13, 16]: 84.0 ± 6.7 min | Doubling time [13, 17]: 69.8 ± 2.5 min | Doubling time [13, 18]: 70.8 ± 4.8 min | Doubling time [13, 19]: 66.4 ± 1.8 min | Doubling time [13, 20]: 72.6 ± 3.1 min | Doubling time ([13]; 0.5 µg/ml LL-37, base MM): 76.4 ± 2.6 min
